Square brackets hold non-standard residues; d marks the D form. Ends that are not written are not given here.
Assays:
human platelets [1] = assay: Human platelet adhesion assay; assay type: cell-based; conditions: fibrinogen or collagen, DEA/NO 10 μM
Procedure: Bacteriological Petri dishes (35×10 mm, Becton Dickinson Labware) were pre-coated with collagen (3 μg/ml) or fibrinogen (15 μg/mL) overnight. Following aspiration of non-adherent matrix, dishes were blocked with 1% BSA. Fresh platelets were washed and suspended in Tyrode's buffer and allowed to adhere for 30 minutes. Plates were washed with PBS, fixed with 0.5% glutaraldehyde and stained with 0.02% toluidine blue. Adherent platelets were counted microscopically. In some experiments platelets were pre-incubated with the Rap1 geranylgeranyltransferase inhibitor GGTI-298 (10 μM) for 30 minutes prior to initiating adhesion.

HAVSMC [2] = assay: Actin cytoskeleton staining (F-actin) in HAVSMC; assay type: cell-based, human
Procedure: VSMC were grown on glass well slides (Lab-Tek, Nunc) under standard growth conditions. Cells were incubated at 37° C. for 1 hour in serum and additive deficient growth medium and the indicated treatment agents, after which the media was removed and the cells were fixed in 4% paraformaldehyde in PBS (pH 7.4, Fisher Scientific) for 15 minutes at room temperature. After washing with DPBS, cells were permeabilized for 5 minutes in 0.1% Triton X-100 in PBS and then blocked in M199E/2% BSA for 30 min at room temperature. Cells were stained for F-actin with 1 unit/200 μl medium/1% BSA of Oregon Green 488 phalloidin (Molecular Probes). Slides were imaged using an Olympus IX70 microscope and photographed at constant exposure and gain. In other experiments VSMC were plated on 24-well culture plates (Nunc, Denmark) in smooth muscle growth medium (50,000 cells/well) and weaned from serum and additives over 24 hours. Cell treatment was performed with the indicated agents in plain medium with 0.1% BSA for 5 minutes. Wells were processed as described above. Following staining with phalloidin cells were incubated in methanol for 30 minutes, samples aliquoted to 96-well black plates and fluorescence read at 520 nm (excitation 495 nm). Data was normalized to total protein. Results represent the mean±SD of at least three separate experiments.

HAVSMC [3] = assay: 3D collagen matrix contraction assay, human aortic VSMC; assay type: cell-based; conditions: HAVSMC, 10% FCS or 100 nM S1P
Procedure: Type I collagen gel (3 mg/ml) with 10×M199 (Gibco, Grand Island, N.Y.) at a 10:1 ratio of collagen to medium was prepared, pH balanced with NaOH and seeded with either HAVSMC or VSMC harvested from aortic segments from C57B16 WT or TSP1 null mice (50,000 cells in 75 μl of gel/well) and aliquoted to 96-well plates (Nunc, Denmark). Plates were incubated for 12 h 37° C. and 5% CO2 allowing for gelation and cell spreading, gently released from the well walls and incubated in serum and additive deficient growth medium with 0.1% BSA in the presence of the indicated treatment agents for 10 h. Contraction was determined by measuring the diameter in perpendicular planes (x, y) of each disk, an average obtained and surface area calculated as (d/2)^2π. Experiments were performed in triplicate. Results represent the mean±SD of at least three separate experiments.
Human aortic VSMC were plated onto 12-well culture plates (Nunc) at a density of 5×10^4 cells/well in SM-GM+2% FCS and cultured until approximately 90% confluent. A translation-blocking antisense morpholino oligonucleotide complementary to human and murine CD47 ([…]; SEQ ID NO: 21) and a five-base mismatch control (CGTgACAGcCAcGACCgACTGCgCA; SEQ ID NO: 22) were obtained from GeneTools (Philomath, Oreg.). Cultured cells were treated as per the manufacturer's recommendation with morpholinos (10 μM) and utilized within 48 hours of treatment.

human platelets [4] = assay: Thrombin-induced human platelet aggregation; assay type: cell-based; conditions: high shear, thrombin 0.2 U/ml, DEA/NO 10 μM
Procedure: Platelets were pelleted from platelet-rich plasma (PRP) by centrifugation for 10 minutes at 200 g. They were then washed with acid citrate dextrose (ACD) (85 mM citric acid, 65 mM sodium citrate, 100 mM glucose, pH 5.1) at a ratio of 1:7 at room temperature. After pelleting the platelets again and removing the supernatant, the platelets were resuspended in 5 mL of Tyrode's buffer (137 mM NaCl, 3 mM KCl, 12 mM NaHCO3, 0.3 mM NaHPO4, 2 mM CaCl2, 1 mM MgCl2, 5.5 mM glucose, 5 mM HEPES, 3.5 mg/mL BSA, pH 7.4). The final platelet number was adjusted to […] in 500 μl/cuvette of Tyrode's buffer.
Aggregation of human platelets under high shear conditions was assessed using a standard optical aggregometer (Lumi-Dual Aggregometer, Chrono-Log Corp., Havertown, Pa.) at 37° C. and 1200 rpm in a volume of 500 μl buffer with a final platelet concentration of 2×10^5 platelets/μl over a 5 minute interval. Pre-incubation with TSP1 and TSP1-based agents was for 15 minutes prior to addition of thrombin and/or the rapidly releasing nitric oxide donor DEA/NO. In some experiments platelets were pre-incubated with the Rap1 inhibitor GGTI-298 (10 μM) (Calbiochem, La Jolla, Calif.) for 30 minutes prior to initiating aggregation. In other high shear aggregation experiments murine platelets were prepared as above with the following modifications. Mouse blood was collected by retro-orbital bleeding of anesthetized mice using heparinized tubes. PRP was prepared and then diluted with 4 vol. of Tyrodes containing 5 mM EDTA to prevent activation. After collection by centrifugation, platelets were resuspended in 2× initial PRP volume and held at room temperature for less than 1 hour before use. Aggregation conditions consisted of 250 μL of washed platelets stirred at 1200 rpm in a Chronolog Optical aggregometer at 37° C. DEA/NO (10 μM) was added 30 seconds prior to activation and 8-BrcGMP added 15 min prior to activation with 0.2 U/ml human thrombin. Data was collected using Chronolog “Aggrolink” software. Platelet aggregation under static conditions was assessed using a spectrophotometer (Beckman DU 640, Beckman Coulter, Fullerton, Calif.) and determined as a change in absorbance at 400 nm with continuous observation over a five minute interval. The cuvette was inverted once every 60 seconds. Pre-incubation with TSP1 and TSP1-based agents was for 15 minutes prior to addition of thrombin and/or DEA/NO to minimize the formation of thrombin-serpinthrombospondin complexes (Chang & Detwiler, Arch Biochem Biophys. 299:100-104, 1992), which interfere with thrombin-platelet interactions.
Fresh human platelets were suspended in Tyrode's buffer and under low shear conditions thrombin-stimulated aggregation measured as described. Platelets were then treated with peptide C6d (1 μM)±NO (10 μM DEA/NO) and thrombin and aggregation measure.

human platelets [5] = assay: cGMP in human platelets; assay type: cell-based; conditions: washed human platelets in Tyrode's buffer
Procedure: Fresh human platelets at 2×10^5 platelets/μl in Tyrode's buffer or PRP were pre-incubated with the indicated agents for 15 minutes and then challenged with DEA/NO for the indicated time interval at room temperature and total cGMP determined via immunoassay (Amersham, GE Healthcare, Buckinghamshire, UK). Murine WT and TSP1-null platelets were treated with DEA/NO and cGMP flux measured.

HUVEC = assay: NO-stimulated HUVEC adhesion on type I collagen; assay type: cell-based, human; conditions: DEA/NO 10 μM, 1 h
Procedure: Cell adhesion was carried out in 96-well culture plates. After pre-coating wells with type I collagen (3 μg/ml in DPBS) harvested cells were plated at a density of 1×10^4 cells/well in medium plus 0.1% BSA and treatment agents and incubated in 5% CO2 for 1 h. Wells were washed with PBS and cells fixed with 1% glutaraldehyde for 10 min., washed and stained with 1% crystal violet for 20 min. Excess stain was rinsed away, adherent cells treated with 10% acetic acid, and plates read at 570 nm.

[6] = tested on: murine ASMC (WT, CD36 null, CD47 null); assay: Intracellular cGMP in murine ASMC; assay type: cell-based, mouse
Procedure: Murine ASMC were obtained from aortic segments harvested sterilely from C57B1/6 CD47 null or CD36 null mice as described (Ray et al., Methods Cell Sci 23:185-188, 2001) and cultured in SM-GM (Cambrex)+20% FCS. In the case of CD36 null cells, culture flasks were pre-coated with 1% gelatin prior to cell plating. Wild type C57B1/6 ASMC cultures were prepared as previously described (Isenberg et al., Matrix Biol 24:110-123, 2005). Cell culture purity was determined by immunohistochemistry staining for α-smooth muscle actin. Cells were used within passage 1 to 4 to minimize overgrowth of other cell types.
HUVEC (10^4 cells/well) grown overnight in 96-well culture plates containing full growth medium with 2% FCS and weaned in growth medium without additives and 1% FCS over 24 hrs before treatment with NO donors and other agents in SM-GM without additives+0.1% BSA. Intracellular cGMP levels were determined according to the manufacturer's instructions using an enzyme immunoassay kit (Amersham Biosciences). In other experiments ASMC from wild type and CD36 or CD47 null mice were plated onto 96-well culture plates and incubated overnight in full growth medium. They were then weaned off serum as described to SM-GM+0.1% BSA and treated with NO donor and other agents as indicated. Intracellular cyclic nucleotides were determined via immunoassay.

Molecule: O=c1onc2cnc3ccccc3n12 [ODQ, Oxadiazole-[4,3-a]quinoxalin-1-one, reference compound]
- decrease in platelet adhesion in response to exogenous NO (human platelets [1]): prevented the decrease in platelet adhesion
- NO-induced actin disassembly (HAVSMC [2]; DEA/NO 10 μM): inhibition of actin disassembly by NO

Molecule: CCCCCCCCCCCCC/C=C/[C@@H](O)[C@@H](N)COP(=O)(O)O [S1P, sphingosine-1-phosphate, reference compound]
- collagen gel contraction (HAVSMC [3]): significant contraction
- F-actin levels (HAVSMC [2]; agent alone (TSP1 2.2 nM, S1P 100 nM)): increased F-actin

Molecule: NCCN(CCN)/[N+]([O-])=N/O [DETA/NO, diethyltriamine NONOate]
- collagen gel contraction (HAVSMC [3]): inhibited gel contraction by both agonists

Molecule: GDGV(D-I)TRIR (GDGV[dI]TRIR) [p907, reference compound]
- NO delay of thrombin-induced platelet aggregation (human platelets [4]): accelerated platelet aggregation in the presence of NO
- NO stimulated cGMP in platelets (human platelets [5]): partially inhibited
- NO-stimulated endothelial cell adhesion on type I collagen (HUVEC): inhibited NO-stimulated endothelial cell adhesion
- NO-stimulated cGMP ([6]; CD36 null MASMC): partially inhibited
- NO-stimulated cGMP ([6]; CD47 null MASMC): did not significantly inhibit
- NO-stimulated cGMP ([6]; WT MASMC): slightly inhibited
- NO-stimulated cGMP ([6]; WT MASMC, listed as 907): inhibited NO-stimulated cGMP responses in WT
